Results taken from ChEMBL document CHEMBL4321837, “Discovery of Potent and Orally Effective Dual Janus Kinase 2/FLT3 Inhibitors for the Treatment of Acute Myelogenous Leukemia and Myeloproliferative Neoplasms” (J Med Chem, 2019).
pIC50: −log10 of the molar value. Active and inactive are the calls of the source. No cut-off for these calls is given here.

Columns and labels:
[1] = Oral bioavailability in Sprague-Dawley rat at 5 mg/kg measured up to 24 hrs by LC/MS/MS analysis; assay type: ADME, organism-based; settings: in vivo
[2] = Cmax in Sprague-Dawley rat at 5 mg/kg, po measured up to 24 hrs by LC/MS/MS analysis; assay type: ADME, organism-based; set-up: dose 5 mg/kg, route oral; settings: in vivo, 24 h
MV4-11 [3] = experiment: Induction of cell cycle arrest in human MV4-11 cells assessed as accumulation at S phase at 0.005 uM after 24 hrs by propidium iodide staining based flow cytometry analysis (reference value: 30.11%); assay type: functional
[4] = target: Tyrosine-protein kinase JAK2 (Homo sapiens, UniProt O60674); experiment: Inhibition of human JAK2 (808 to end residues) assessed as residual activity at 100 nM using KTFCGTPEYLAP as substrate after 40 mins in presence of [gamma33P]-ATP by scintillation counting based radiometric assay relative to control
[5] = target: Tyrosine-protein kinase Lyn (Homo sapiens, UniProt P07948); experiment: Inhibition of recombinant full length human LYN using poly(Glu, Tyr) 4:1 as substrate incubated for 40 mins in presence of [gamma33P]-ATP by scintillation counting based radiometry assay
Chain of Tyrosine-protein kinase Lyn (P07948 whole entry): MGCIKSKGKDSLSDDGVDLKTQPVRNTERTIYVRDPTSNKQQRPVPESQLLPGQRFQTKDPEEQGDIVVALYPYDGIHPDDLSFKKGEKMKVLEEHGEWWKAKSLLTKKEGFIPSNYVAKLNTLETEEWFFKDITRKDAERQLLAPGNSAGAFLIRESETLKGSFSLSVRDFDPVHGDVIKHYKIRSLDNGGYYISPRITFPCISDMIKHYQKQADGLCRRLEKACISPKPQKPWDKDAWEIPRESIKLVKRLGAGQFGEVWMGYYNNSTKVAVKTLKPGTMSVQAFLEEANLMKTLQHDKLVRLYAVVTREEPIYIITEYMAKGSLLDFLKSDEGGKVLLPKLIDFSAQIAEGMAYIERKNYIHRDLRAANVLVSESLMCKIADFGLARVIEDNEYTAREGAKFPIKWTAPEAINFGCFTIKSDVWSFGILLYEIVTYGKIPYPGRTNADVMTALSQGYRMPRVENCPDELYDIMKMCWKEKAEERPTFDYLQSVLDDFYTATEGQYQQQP

[6] = Half life in rat liver microsomes; assay type: ADME, Microsome
[7] = Intrinsic clearance in mouse liver microsomes; assay type: ADME, Microsome
[8] = target: T1, Tyrosine-protein kinase JAK1 (Homo sapiens, UniProt P23458); experiment: Inhibition of JAK1 in human PBMC cells assessed as reduction in IL-6-induced STAT3 phosphorylation by flow cytometry; assay type: cell-based
T1 sequence (P23458 whole entry): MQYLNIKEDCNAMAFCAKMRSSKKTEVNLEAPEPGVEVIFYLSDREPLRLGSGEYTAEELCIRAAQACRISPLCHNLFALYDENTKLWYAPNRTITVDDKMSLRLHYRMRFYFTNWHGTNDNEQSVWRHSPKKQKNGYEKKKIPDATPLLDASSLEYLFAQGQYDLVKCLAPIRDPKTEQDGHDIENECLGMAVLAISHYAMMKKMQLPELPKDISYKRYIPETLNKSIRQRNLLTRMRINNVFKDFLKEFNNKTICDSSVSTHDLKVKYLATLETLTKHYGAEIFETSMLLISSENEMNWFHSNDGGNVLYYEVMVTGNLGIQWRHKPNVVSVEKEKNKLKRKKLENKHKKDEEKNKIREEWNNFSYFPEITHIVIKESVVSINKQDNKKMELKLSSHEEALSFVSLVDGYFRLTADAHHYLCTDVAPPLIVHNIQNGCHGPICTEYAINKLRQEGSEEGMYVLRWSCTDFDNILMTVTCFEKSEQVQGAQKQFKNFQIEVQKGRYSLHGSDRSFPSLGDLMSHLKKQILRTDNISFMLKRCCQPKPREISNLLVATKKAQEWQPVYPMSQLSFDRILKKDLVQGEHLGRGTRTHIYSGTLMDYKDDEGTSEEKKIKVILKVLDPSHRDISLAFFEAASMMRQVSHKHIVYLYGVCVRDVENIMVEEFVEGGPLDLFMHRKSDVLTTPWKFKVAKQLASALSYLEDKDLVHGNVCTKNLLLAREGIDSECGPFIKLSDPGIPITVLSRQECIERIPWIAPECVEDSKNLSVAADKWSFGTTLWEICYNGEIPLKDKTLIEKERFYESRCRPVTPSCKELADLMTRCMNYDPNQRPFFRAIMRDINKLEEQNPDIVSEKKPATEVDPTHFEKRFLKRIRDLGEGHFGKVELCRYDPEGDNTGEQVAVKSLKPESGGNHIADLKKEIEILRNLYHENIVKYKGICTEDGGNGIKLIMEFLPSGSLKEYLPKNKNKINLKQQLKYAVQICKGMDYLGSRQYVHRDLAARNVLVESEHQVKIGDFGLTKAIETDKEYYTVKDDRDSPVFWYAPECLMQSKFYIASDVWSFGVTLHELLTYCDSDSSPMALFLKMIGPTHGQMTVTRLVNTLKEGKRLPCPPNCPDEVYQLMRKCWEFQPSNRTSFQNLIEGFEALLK

JAK3/JAK1 = JAK3/JAK1 (Homo sapiens, UniProt P23458+P52333); experiment: Inhibition of JAK1/JAK3 in human PBMC cells assessed as reduction in IL-2-induced STAT5 phosphorylation by flow cytometry; assay type: cell-based
Cytochrome P450 2C9 = Cytochrome P450 2C9 (Homo sapiens, UniProt P11712); experiment: Inhibition of CYP2C9 (unknown origin); assay type: ADME
Chain of Cytochrome P450 2C9 (P11712 whole entry): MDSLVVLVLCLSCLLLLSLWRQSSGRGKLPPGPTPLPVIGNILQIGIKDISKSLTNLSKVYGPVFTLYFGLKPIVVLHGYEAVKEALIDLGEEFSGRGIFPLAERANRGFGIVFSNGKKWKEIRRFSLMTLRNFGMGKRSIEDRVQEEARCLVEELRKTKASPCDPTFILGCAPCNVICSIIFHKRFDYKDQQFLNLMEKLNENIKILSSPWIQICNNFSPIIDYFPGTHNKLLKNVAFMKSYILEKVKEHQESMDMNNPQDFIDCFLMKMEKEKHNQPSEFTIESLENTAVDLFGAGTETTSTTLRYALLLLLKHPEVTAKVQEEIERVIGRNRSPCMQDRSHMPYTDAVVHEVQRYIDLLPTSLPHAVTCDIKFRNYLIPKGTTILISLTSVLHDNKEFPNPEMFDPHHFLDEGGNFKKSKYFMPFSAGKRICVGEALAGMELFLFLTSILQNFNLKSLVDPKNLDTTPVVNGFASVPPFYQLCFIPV

MDA-MB-231 = experiment: Antiproliferative activity against human MDA-MB-231 cells assessed as reduction in cell growth after 72 hrs by MTT assay; assay type: functional, cell-based
MV4-11 [9] = experiment: Induction of apoptosis in human MV4-11 cells assessed as viable cells at 0.05 uM after 24 hrs by Annexin V FITC/PI staining based flow cytometry analysis (reference value: 96.3%); assay type: functional; settings: MV4-11, 24 h, read-out: Activity
MV4-11 [10] = experiment: Induction of cell cycle arrest in human MV4-11 cells assessed as accumulation at S phase at 0.1 uM after 24 hrs by propidium iodide staining based flow cytometry analysis (reference value: 30.11%); assay type: functional
MV4-11 [11] = experiment: Induction of apoptosis in human MV4-11 cells assessed as viable cells at 1.6 uM after 24 hrs by Annexin V FITC/PI staining based flow cytometry analysis (reference value: 96.3%); assay type: functional; settings: MV4-11, 24 h, read-out: Activity
MV4-11 [12] = experiment: Induction of apoptosis in human MV4-11 cells assessed as necrotic cells at 0.4 uM after 24 hrs by Annexin V FITC/PI staining based flow cytometry analysis (reference value: 0.18%); assay type: functional
MV4-11 [13] = experiment: Inhibition of JAK2/FLT3 ITD mutant in human MV4-11 cells assessed as reduction in STAT5 phosphorylation at 0.2 uM after 2 hrs by Western blot analysis; assay type: cell-based
MV4-11 [14] = experiment: Induction of apoptosis in human MV4-11 cells assessed as necrotic cells at 0.8 uM after 24 hrs by Annexin V FITC/PI staining based flow cytometry analysis (reference value: 0.18%); assay type: functional
Homo sapiens = species: Homo sapiens; experiment: Inhibition of JAK2 V617F mutant/FLT3 in human SET2 cells assessed as reduction in FLT3 phosphorylation after 2 hrs by Western blot analysis; assay type: cell-based
Cytochrome P450 3A4 = Cytochrome P450 3A4 (Homo sapiens, UniProt P08684); experiment: Inhibition of CYP3A4 (unknown origin); assay type: ADME
Chain of Cytochrome P450 3A4 (P08684 whole entry): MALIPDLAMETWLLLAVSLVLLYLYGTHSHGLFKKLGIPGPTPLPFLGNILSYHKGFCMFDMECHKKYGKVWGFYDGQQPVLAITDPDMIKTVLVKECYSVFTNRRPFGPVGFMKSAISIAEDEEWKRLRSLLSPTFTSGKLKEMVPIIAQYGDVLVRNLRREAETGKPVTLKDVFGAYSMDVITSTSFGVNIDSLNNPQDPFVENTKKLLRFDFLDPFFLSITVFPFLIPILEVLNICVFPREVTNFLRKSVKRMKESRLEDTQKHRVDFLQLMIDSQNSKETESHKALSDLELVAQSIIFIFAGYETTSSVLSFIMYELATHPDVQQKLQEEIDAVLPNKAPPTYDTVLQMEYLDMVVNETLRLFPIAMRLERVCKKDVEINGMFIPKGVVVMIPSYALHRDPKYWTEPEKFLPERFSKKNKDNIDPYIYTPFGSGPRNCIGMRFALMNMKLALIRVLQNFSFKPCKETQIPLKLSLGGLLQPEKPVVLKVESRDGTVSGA

MV4-11 [15] = experiment: Induction of cell cycle arrest in human MV4-11 cells assessed as accumulation at G0/G1 phase at 0.05 uM after 24 hrs by propidium iodide staining based flow cytometry analysis (reference value: 54.49%); assay type: functional
[16] = Half life in human liver microsomes; assay type: ADME, Microsome
[17] = target: T1, Tyrosine-protein kinase JAK1; experiment: Inhibition of human JAK1 (866 to end residues) assessed as residual activity at 100 nM using GEEPLYWSFPAKK as substrate after 40 mins in presence of [gamma33P]-ATP by scintillation counting based radiometric assay relative to control
[18] = AUC (0 to t) in Sprague-Dawley rat at 5 mg/kg, po measured up to 24 hrs by LC/MS/MS analysis; assay type: ADME, organism-based; set-up: dose 5 mg/kg, time < 24 hr, route oral; settings: in vivo, 24 h
[19] = target: Voltage-gated inwardly rectifying potassium channel KCNH2 (Homo sapiens, UniProt Q12809); experiment: Inhibition of human ERG
Chain of Voltage-gated inwardly rectifying potassium channel KCNH2 (Q12809 whole entry): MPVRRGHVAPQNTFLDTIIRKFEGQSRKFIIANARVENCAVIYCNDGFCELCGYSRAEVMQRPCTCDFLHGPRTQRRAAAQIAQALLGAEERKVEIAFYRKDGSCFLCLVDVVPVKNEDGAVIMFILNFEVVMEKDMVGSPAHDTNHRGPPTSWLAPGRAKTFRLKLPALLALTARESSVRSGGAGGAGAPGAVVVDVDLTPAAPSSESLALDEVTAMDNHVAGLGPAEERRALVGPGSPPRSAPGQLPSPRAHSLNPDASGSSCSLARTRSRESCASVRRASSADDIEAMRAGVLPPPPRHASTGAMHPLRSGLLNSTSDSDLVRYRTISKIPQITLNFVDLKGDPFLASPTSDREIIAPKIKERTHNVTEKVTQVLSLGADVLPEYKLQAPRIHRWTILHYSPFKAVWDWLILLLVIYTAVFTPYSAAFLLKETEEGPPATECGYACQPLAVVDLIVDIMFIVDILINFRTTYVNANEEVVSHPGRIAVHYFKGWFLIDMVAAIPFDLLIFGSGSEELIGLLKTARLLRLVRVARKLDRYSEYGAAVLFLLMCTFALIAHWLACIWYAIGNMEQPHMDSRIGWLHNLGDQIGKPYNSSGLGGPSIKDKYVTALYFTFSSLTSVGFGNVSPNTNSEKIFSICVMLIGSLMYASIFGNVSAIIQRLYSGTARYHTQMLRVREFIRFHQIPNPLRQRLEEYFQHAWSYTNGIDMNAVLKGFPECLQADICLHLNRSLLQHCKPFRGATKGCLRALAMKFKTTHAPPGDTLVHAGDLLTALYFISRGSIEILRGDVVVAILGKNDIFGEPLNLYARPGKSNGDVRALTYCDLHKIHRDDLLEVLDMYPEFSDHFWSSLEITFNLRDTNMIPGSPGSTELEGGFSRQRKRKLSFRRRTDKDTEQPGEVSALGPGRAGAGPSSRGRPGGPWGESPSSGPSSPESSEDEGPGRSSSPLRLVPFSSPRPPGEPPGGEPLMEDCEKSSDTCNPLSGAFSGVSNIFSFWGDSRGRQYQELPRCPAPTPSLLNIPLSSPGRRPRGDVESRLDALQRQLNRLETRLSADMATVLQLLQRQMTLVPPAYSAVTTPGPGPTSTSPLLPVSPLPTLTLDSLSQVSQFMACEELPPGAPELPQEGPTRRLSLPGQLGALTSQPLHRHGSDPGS

MV4-11 [20] = experiment: Induction of apoptosis in human MV4-11 cells after 24 hrs by Annexin V FITC/PI staining based flow cytometry analysis; assay type: functional, cell-based
MV4-11 [21] = experiment: Induction of apoptosis in human MV4-11 cells assessed as necrotic cells at 0.05 uM after 24 hrs by Annexin V FITC/PI staining based flow cytometry analysis (reference value: 0.18%); assay type: functional
[22] = Intrinsic clearance in dog liver microsomes; assay type: ADME, Canis lupus familiaris, Microsome
[23] = Anti-myelofibrosis activity against mouse BAF3(transformed) cells harboring with JAK2 V617F mutant allografted in NOD/SCID mouse assessed as reduction in spleen weight at 60 mg/kg, po qd for 20 days measured on day 25 relative to control; assay type: functional
NCI-H460 = experiment: Antiproliferative activity against human NCI-H460 cells assessed as reduction in cell growth after 72 hrs by MTT assay; assay type: functional, cell-based
Cytochrome P450 1A2 = Cytochrome P450 1A2 (Homo sapiens, UniProt P05177); experiment: Inhibition of CYP1A2 (unknown origin); assay type: ADME
Chain of Cytochrome P450 1A2 (P05177 whole entry): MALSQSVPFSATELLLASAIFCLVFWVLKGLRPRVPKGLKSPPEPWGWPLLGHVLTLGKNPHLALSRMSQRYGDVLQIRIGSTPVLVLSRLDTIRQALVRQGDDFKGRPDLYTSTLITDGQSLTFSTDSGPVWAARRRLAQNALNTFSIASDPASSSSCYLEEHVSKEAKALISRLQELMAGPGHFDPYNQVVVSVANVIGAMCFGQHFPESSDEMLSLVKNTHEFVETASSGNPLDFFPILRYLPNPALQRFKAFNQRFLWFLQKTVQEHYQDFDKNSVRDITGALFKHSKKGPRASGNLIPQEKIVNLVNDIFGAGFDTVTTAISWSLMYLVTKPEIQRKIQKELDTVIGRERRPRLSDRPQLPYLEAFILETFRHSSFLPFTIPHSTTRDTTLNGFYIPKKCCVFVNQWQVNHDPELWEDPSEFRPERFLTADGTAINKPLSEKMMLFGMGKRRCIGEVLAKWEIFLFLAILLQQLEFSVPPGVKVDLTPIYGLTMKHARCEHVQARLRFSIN

[24] = target: Receptor-type tyrosine-protein kinase FLT3 (Homo sapiens) (UniProt P36888); experiment: Inhibition of human FLT3 (564 to end residues) assessed as residual activity at 100 nM using EAIYAAPFAKKK as substrate after 40 mins in presence of [gamma33P]-ATP by scintillation counting based radiometric assay relative to control
MDA-MB-453 = experiment: Antiproliferative activity against human MDA-MB-453 cells assessed as reduction in cell growth after 72 hrs by MTT assay; assay type: functional, cell-based
MV4-11 [25] = experiment: Induction of apoptosis in human MV4-11 cells assessed as late apoptotic cells at 0.05 uM after 24 hrs by Annexin V FITC/PI staining based flow cytometry analysis (reference value: 1.38%); assay type: functional
MV4-11 [26] = experiment: Induction of cell cycle arrest in human MV4-11 cells assessed as accumulation at G2/M phase at 0.05 uM after 24 hrs by propidium iodide staining based flow cytometry analysis (reference value: 15.4%); assay type: functional
[27] = target: Vascular endothelial growth factor receptor 1 (Homo sapiens, UniProt P17948); experiment: Inhibition of recombinant human FLT1 (783 to end residues) using KKKSPGEYVNIEF as substrate incubated for 40 mins in presence of [gamma33P]-ATP by scintillation counting based radiometry assay
[28] = Intrinsic clearance in monkey liver microsomes; assay type: ADME, Macaca mulatta, Microsome; settings: rhesus monkey
[29] = target: T1, Tyrosine-protein kinase JAK1; experiment: Inhibition of human JAK1 (866 to end residues) GEEPLYWSFPAKK as substrate after 40 mins in presence of [gamma33P]-ATP by scintillation counting based radiometric assay

`Cc1cnc(Nc2ccc(N3CCC(N(C)CCO)CC3)c(F)c2)nc1-c1cnn(C(C)C)c1` gave a bioavailability [1] of 58%, a Cmax [2] of 102 ng/mL and an Activity (MV4-11 [3]) of 28.22%. It also gave an Activity [4] of 0%, a pIC50 [5] of 7.77 and a half-life [6] of 12.8 h. It also gave a CLH [7] of 1.8 µL/min/mg, a pIC50 [8] of 7.03 and a pIC50 (JAK3/JAK1) of 6.95. The pIC50 (Cytochrome P450 2C9) was 4.11, the Activity (MDA-MB-231) was “Active” and the viability at 0.05 µM (MV4-11 [9]) was 89.6%. It also gave an Activity (MV4-11 [10]) of 10.26%, a viability at 1.6 µM (MV4-11 [11]) of 24.9% and an Activity (MV4-11 [12]) of 1.04%. The inhibition (MV4-11 [13]) was “Active”, the Activity (MV4-11 [14]) was 0.93% and the inhibition (Homo sapiens) was “Dose-dependent effect”. For the same compound, the pIC50 (Cytochrome P450 3A4) was < 4.00, the Activity (MV4-11 [15]) was 81.64% and the half-life [16] was 4.81 h. It also gave an Activity [17] of 25%, an AUCt [18] of 2552 ng·h/mL and a pIC50 [19] of 4.55. For the same compound, the Activity (MV4-11 [20]) was “Dose-dependent effect”, the Activity (MV4-11 [21]) was 0.29% and the CLH [22] was 3.7 µL/min/mg. The inhibition in vivo at 60 mg/kg [23] was 59.5%, the Activity (NCI-H460) was “Active” and the pIC50 (Cytochrome P450 1A2) was 4.19. The Activity [24] was 4%, the Activity (MDA-MB-453) was “Active” and the Activity (MV4-11 [25]) was 4.55%. It also gave an Activity (MV4-11 [26]) of 5.51%, a pIC50 [27] of 7.66 and a CLH [28] of 0.5 µL/min/mg. The pIC50 [29] was 7.59.
